The nature of data set [1]: Lipophilicity, Log P of the compound. Format: physicochemical. The following applies: octanol/water.
Data set [2] has as its target Amyloid-beta precursor protein (Homo sapiens, UniProt P05067). The data set can be described thus: Displacement of [125I]IMPY from beta amyloid in human AD cortical tissue. On the technique in general: Loss of bound radioactivity is the signal in a displacement assay; it reports binding, not function.
For data set [3], the system named is Rhesus monkey. Put plainly: Penetration into iv dosed rhesus monkey blood-brain barrier after 9 mins. Format: functional, organism-based. As to conditions: Macaca mulatta, tested as the 18F-labelled form.
For data set [4], the system named is Rhesus monkey. The data set can be described thus: Uptake in iv dosed rhesus monkey skull. It counts as functional, organism-based. As to conditions: Macaca mulatta; tested as the 18F-labelled form.

pKi: −log10 of the molar value. Activity calls are given as the source filed them. The calls are words filed in the database; no cut-off is given here.

What is called logP is a log measure of how a compound divides between an organic and an aqueous phase. As usually defined, the pKi is the negative decadic logarithm of the Ki, by convention in mol/L.

Chain of Amyloid-beta precursor protein (P05067 whole entry): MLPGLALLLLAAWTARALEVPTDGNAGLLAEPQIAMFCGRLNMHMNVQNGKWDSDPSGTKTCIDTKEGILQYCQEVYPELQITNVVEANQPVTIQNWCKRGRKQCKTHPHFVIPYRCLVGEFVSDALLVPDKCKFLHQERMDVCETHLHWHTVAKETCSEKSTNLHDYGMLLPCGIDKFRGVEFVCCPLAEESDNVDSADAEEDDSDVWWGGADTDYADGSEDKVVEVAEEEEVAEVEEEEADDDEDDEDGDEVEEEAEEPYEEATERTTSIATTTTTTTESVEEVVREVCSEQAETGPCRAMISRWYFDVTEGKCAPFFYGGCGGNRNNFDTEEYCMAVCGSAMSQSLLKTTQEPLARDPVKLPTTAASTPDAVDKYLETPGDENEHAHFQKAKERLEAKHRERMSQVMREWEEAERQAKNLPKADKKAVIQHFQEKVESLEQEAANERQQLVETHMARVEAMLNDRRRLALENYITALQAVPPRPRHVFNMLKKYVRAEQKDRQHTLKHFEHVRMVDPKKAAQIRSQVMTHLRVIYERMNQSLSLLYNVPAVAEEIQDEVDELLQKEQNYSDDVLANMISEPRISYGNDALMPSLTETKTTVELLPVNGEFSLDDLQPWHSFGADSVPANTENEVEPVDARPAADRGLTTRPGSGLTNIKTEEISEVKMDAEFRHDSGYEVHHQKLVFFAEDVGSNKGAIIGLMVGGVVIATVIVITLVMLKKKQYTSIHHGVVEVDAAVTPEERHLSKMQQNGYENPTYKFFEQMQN

The compound `CN(C)c1ccc(-c2cn3cc(CCF)ccc3n2)cc1` registered a logP in data set [1] of 2.42. In data set [2], the pKi is 6.75.
Take `CN(C)c1ccc(-c2cn3cc(CCCF)ccc3n2)cc1`: the logP in data set [1] amounted to 2.84. Moreover, in the data set on Rhesus monkey [3], the result was Active. In addition, the pKi in data set [2] was 7.32. Also, the result in the data set on Rhesus monkey [4] was inactive.
`CN(C)c1ccc(-c2cn3cc(I)ccc3n2)cc1`: the logP in data set [1] came to 3.58.

The values above are taken from ChEMBL document CHEMBL1147794, “Synthesis and evaluation of two 18F-labeled imidazo[1,2-a]pyridine analogues as potential agents for imaging beta-amyloid in Alzheimer's disease” (Bioorg Med Chem Lett, 2006).
